Results from patent US20240382497A1, “PROPHYLACTIC OR THERAPEUTIC AGENT FOR HYPOXIC INJURY, ISCHAEMIA-REPERFUSION INJURY AND INFLAMMATION, CELL PROTECTION AGENT FOR TRANSPLANTATION, AND BIO-PRESERVATION AGENT” (priority 2018, published 2024).

Legend:
[1] = tested on: cerebral ischemia-reperfusion injury model mouse; test: Cerebral ischemia-reperfusion injury, MAP2-unstained area; type: in vivo; details: about 80 mg/kg i.p. at the reperfusion, two days after reperfusion, versus saline
Procedure: The bilateral common carotid arteries of about 3-month-old C57/BL6 mouse were ligated by clips to induce cerebral ischemia injury, and the blood was reperfused by removing the clips 30 min later. A thiazoline-related compound (2MT) solution (200 μl, about 80 mg/kg), or saline, as a control, was intraperitoneally administered at the reperfusion. Two days after the reperfusion, the brain tissue of the mouse was removed, brain sections were prepared, and the injured region was analyzed by antibody staining with Microtubule-associated protein 2 (MAP2).

[2] = tested on: C57/BL6N male mice; test: Oxygen consumption on odor presentation; type: in vivo, mouse; details: filter paper scented with 100 μl (104 mmol) odor, versus saline
Procedure: An influence of a thiazoline-related compound on the oxygen consumption was analyzed. The oxygen consumption was analyzed using an energy metabolism measurement device for small animals (ARCO-2000; ARCO SYSTEM). About 3-month-old C57/BL6N male mice were each placed in a measuring chamber and, after acclimation for about 2 hr, a thiazoline-related compound (2MT) was presented. The odors were presented by placing filter papers scented with 100 μl (104 mmol) of odor molecules in the measuring chamber. As a control, an experiment in which a filter paper dropped with saline was presented to the mice was also performed. The oxygen consumption was measured every one min. Mean oxygen consumption was calculated as the mean of 10 min before presenting odor and 20 min after presenting odor.

[3] = tested on: C57/BL6N male mice; test: Survival time in 4% oxygen after odor presentation; type: in vivo, mouse; details: odor 100 μl (104 mmol) presented 50 min before; measured up to 30 min; no odor controls all died within 20 min
Procedure: (§1) About 3-month-old C57/BL6N male mice were each placed in a highly sealed breeding cage, and a filter paper scented with 100 μl (104 mmol) of the thiazoline-related compound (2MT) was placed in the breeding cage, and the odor was presented for 50 min. After the odor was presented, the mice were placed in a tight box in which the oxygen concentration was adjusted to 4%, and the survival time of the mice was measured up to 30 min at maximum. As a control, the survival time of mice presented with a filter paper dropped with water was also measured (no odor). Furthermore, changes in the core body temperature when the odor was presented under the same conditions as in this Example were measured by the same experimental method as in Example 4.

[4] = tested on: C57/BL6N male mice; test: Core body temperature under the odor conditions of Example 9; type: in vivo, mouse; details: odor presentation conditions of Example 9
Procedure: An influence of a thiazoline-related compound and an odor molecule that induces learned fear on the core body temperature was analyzed. A radio-telemetry device for monitoring biological parameters (manufactured by Physiotel) was surgically implanted in the abdomen of male C57/BL6N mice (about 3 months old). The mice were subjected to the following experiment after about 10 days of recovery period. […] The information of body temperature was recorded every 10 sec using Dataquest A.R.T. software (DataScience international). The value of the core body temperature change was calculated as the difference between the mean core body temperature for 10 min when water was presented and the mean core body temperature for 20 min when each odor molecule was presented, and the change in the core body temperature without odor was set to 0. […]
as §1, with “Furthermore, changes in the core body temperature when the odor was presented under the same conditions as in this Example were measured by the same experimental method as in Example 4.” left out

[5] = tested on: Trpa1 knockout and littermate hetero mice; test: Survival time in 4% oxygen of Trpa1 knockout mouse after odor presentation; type: in vivo; details: 271 μmol odor presented 10 min, versus saline
Procedure: The thiazoline-related compound (2MT) was presented for 10 min to about 3-month-old male Trpa1 knockout and littermate hetero mice. Thereafter, the mice were placed in a tight box in which the oxygen concentration was adjusted to 4%, and the survival time of the mice was measured up to 30 min at maximum. The odor was presented by placing a filter paper scented with 271 μmol of 2MT in the breeding cage. As a control, an experiment presenting a filter paper dropped with saline was also performed (no odor).

[6] = tested on: Interleukin-10 (IL-10); test: Blood IL-10 in LPS sepsis model (ELISA); type: in vivo, mouse; details: about 80 mg/kg i.p., 1 hr and 4 hr, versus saline
Procedure: (§2) Lipopolysaccharide (LPS) (0.6 mg/kg) was intraperitoneally administered to male Balb/c mice (about 2-3 months old) to generate a sepsis model. Immediately after the LPS administration, 200 μl (about 80 mg/kg) of a solution prepared by diluting various heterocyclic compounds and isothiocyanate compounds 100 times with saline was intraperitoneally administered. Blood samples were collected 60 min after LPS and compound administration, EDTA plasma was prepared, and the blood level of inflammatory cytokine TNF-a was measured by the ELISA method.
A sepsis model mouse was prepared by the same method as in Example 18. Immediately after the LPS administration, 200 μl (about 80 mg/kg) of a thiazoline-related compound (2MT) solution prepared by diluting 100 times with saline was intraperitoneally administered. Blood samples were collected 1 hr and 4 hr after administration of LPS and thiazoline-related compound (2MT), EDTA plasma was prepared, and the blood levels of inflammatory cytokine Interleukin-1β (IL-1β), and anti-inflammatory cytokine Interleukin-10 (IL-10) were measured by the ELISA method.

[7] = tested on: sepsis model mouse; test: Survival time in LPS sepsis model; type: in vivo; details: about 80 mg/kg i.p., versus saline
Procedure: as §2
A sepsis model mouse was prepared by the same method as in Example 18. Immediately after the LPS administration, 200 μl (about 80 mg/kg) of a thiazoline-related compound (2MT) solution prepared by diluting 100 times with saline was intraperitoneally administered. The survival time of the mouse was measured when the thiazoline-related compound (2MT) was administered and when saline, as a control, was administered (saline).

In the case of `CC1=NCCS1` [2MT, 2-methyl-2-thiazoline], the “area of the injured region of the brain (not stained with MAP2)” value [1] is reported as “reduce cerebral ischemia-reperfusion injury”, the “oxygen consumption per body weight” value [2] is reported as “decreased remarkably” and the “survival time in 4% oxygen” value [3] is reported as “many individuals survived even after 30 min”. For the same molecule, the core body temperature [4] was “remarkable decrease in the core body temperature”, the “survival time in 4% oxygen” value [5] was “did not increase significantly” and the “blood concentration of IL-10” value [6] was “increased the blood concentration of anti-inflammatory cytokine IL-10”. The “survival time in sepsis model” value [7] was “extending the survival time”.
